In ChEMBL document CHEMBL5365394, “Design, synthesis and biological evaluation of novel spiro-quinazolinone derivatives as chitin synthase inhibitors and antifungal agents” (Eur J Med Chem, 2023):
Values after ≈ are worked out from the molar mass of the structure shown. One block for each compound: values may come before it. Active and inactive are the calls of the source. The rule behind the calls is not given here.

Assays:
[1] = Inhibition of Saccharomyces cerevisiae CGMCC2.145 chitin synthase […] by TMB based microplate reader analysis
Aspergillus fumigatus [2] = test: Antifungal activity against Aspergillus fumigatus GIMCC 3.19 assessed as fungal growth inhibition incubated for 24 hrs by two-fold serial dilution method; format: functional
Aspergillus flavus [3] = test: Synergistic antifungal activity against Aspergillus flavus ATCC 16870 assessed as fluconazole MIC incubated for 24 hrs in by checkerboard broth microdilution method; format: functional
Candida albicans [4] = test: Synergistic antifungal activity against Candida albicans ATCC 76615 assessed as fractional inhibitory concentration index incubated for 24 hrs in presence of polyoxin B by checkerboard broth microdilution method; format: functional
Candida albicans [5] = test: Antifungal activity against Candida albicans ATCC 76615 assessed as fungal growth inhibition incubated for 24 hrs by two-fold serial dilution method; format: functional
Candida tropicalis [6] = test: Non competitive inhibition of Candida tropicalis ATCC 750 chitin synthase using UDP-GlcNAc as substrate assessed as decrease in Vmax with constant Km at 0.05 to 0.15 mM incubated for 1 hr by Michaelis-Menten analysis; conditions: dose 0.05-0.15 mM
Aspergillus flavus [7] = test: Synergistic antifungal activity against Aspergillus flavus ATCC 16870 assessed as fractional inhibitory concentration index incubated for 24 hrs in presence of polyoxin B by checkerboard broth microdilution method; format: functional
Aspergillus fumigatus [8] = test: Antifungal activity against Aspergillus fumigatus GIMCC 3.19 assessed as inhibition of cell wall synthesis incubated for 24 hrs in presence of sorbitol; format: functional
Cryptococcus neoformans [9] = test: Synergistic antifungal activity against Cryptococcus neoformans ATCC 32719 assessed as fractional inhibitory concentration index incubated for 24 hrs in presence of polyoxin B by checkerboard broth microdilution method; format: functional
Aspergillus flavus [10] = test: Antifungal activity against Fluconazole-resistant Aspergillus flavus ATCC 16870R assessed as fungal growth inhibition; format: functional
Cryptococcus neoformans [11] = test: Antifungal activity against Fluconazole-resistant Cryptococcus neoformans ATCC 32719R assessed as fungal growth inhibition; format: functional
Cryptococcus neoformans [12] = test: Synergistic antifungal activity against Cryptococcus neoformans ATCC 32719 assessed as polyoxin B MIC incubated for 24 hrs in by checkerboard broth microdilution method; format: functional
Aspergillus fumigatus [13] = test: Synergistic antifungal activity against Aspergillus fumigatus GIMCC 3.19 assessed as fluconazole MIC incubated for 24 hrs in by checkerboard broth microdilution method; format: functional
Aspergillus fumigatus [14] = test: Synergistic antifungal activity against Aspergillus fumigatus GIMCC 3.19 assessed as fractional inhibitory concentration index incubated for 24 hrs in presence of fluconazole by checkerboard broth microdilution method; format: functional
Candida albicans [15] = test: Synergistic antifungal activity against Candida albicans ATCC 76615 assessed as fluconazole MIC incubated for 24 hrs in by checkerboard broth microdilution method; format: functional
Candida albicans [16] = test: Antifungal activity against Micafungin-resistant Candida albicans ATCC 76615R assessed as fungal growth inhibition; format: functional
Aspergillus fumigatus [17] = test: Antifungal activity against Fluconazole-resistant Aspergillus fumigatus GIMCC 3.19R assessed as fungal growth inhibition; format: functional
[18] = Cytotoxicity against human A549 cells assessed as cell viability at 8 ug/ml incubated for 24 hrs by CCK-8 assay relative to control; format: toxicity, cell-based; conditions: at 8 µg/mL, read-out: Activity
Cryptococcus neoformans [19] = test: Antifungal activity against Cryptococcus neoformans ATCC 32719 assessed as inhibition of cell wall synthesis incubated for 24 hrs in absence of sorbitol; format: functional
Aspergillus flavus [20] = test: Antifungal activity against Aspergillus flavus ATCC 16870 assessed as fungal growth inhibition incubated for 24 hrs by two-fold serial dilution method; format: functional
Candida tropicalis [21] = test: Inhibition of Candida tropicalis ATCC 750 chitin synthase using […] as substrate at 300 ug/ml incubated for 1 hr by absorbance based assay relative to control; conditions: dose 300.0 µg/ml
Candida tropicalis [22] = test: Non competitive inhibition of Candida tropicalis ATCC 750 chitin synthase using UDP-GlcNAc as substrate assessed as Km at 0.05 to 0.15 mM incubated for 1 hr by Michaelis-Menten analysis; conditions: dose 0.05-0.15 mM
[23] = Non competitive inhibition of Candida tropicalis ATCC 750 chitin synthase using UDP-GlcNAc as substrate assessed as inhibition constant incubated for 1 hr by double reciprocal plot analysis
[24] = Cytotoxicity against human A549 cells assessed as cell viability at 64 ug/ml incubated for 24 hrs by CCK-8 assay relative to control; format: toxicity, cell-based; conditions: at 64 µg/mL, read-out: Activity
Cryptococcus neoformans [25] = test: Synergistic antifungal activity against Cryptococcus neoformans ATCC 32719 assessed as fractional inhibitory concentration index incubated for 24 hrs in presence of fluconazole by checkerboard broth microdilution method; format: functional
Candida albicans [26] = test: Synergistic antifungal activity against Candida albicans ATCC 76615 assessed as fractional inhibitory concentration index incubated for 24 hrs in presence of fluconazole by checkerboard broth microdilution method; format: functional
Candida albicans [27] = test: Antifungal activity against Fluconazole-resistant Candida albicans ATCC 76615R assessed as fungal growth inhibition; format: functional
Cryptococcus neoformans [28] = test: Antifungal activity against Cryptococcus neoformans ATCC 32719 assessed as inhibition of cell wall synthesis incubated for 24 hrs in presence of sorbitol; format: functional
[29] = Cytotoxicity against human A549 cells assessed as cell viability at 32 ug/ml incubated for 24 hrs by CCK-8 assay relative to control; format: toxicity, cell-based; conditions: at 32 µg/mL, read-out: Activity
A549 = test: Cytotoxicity against human A549 cells assessed as cell viability incubated for 24 hrs at 128 ug/ml by CCK-8 assay relative to control; conditions: dose 128 µg/ml
Cryptococcus neoformans [30] = test: Antifungal activity against Cryptococcus neoformans ATCC 32719 assessed as fungal growth inhibition incubated for 24 hrs by two-fold serial dilution method; format: functional
Candida albicans [31] = test: Synergistic antifungal activity against Candida albicans ATCC 76615 assessed as polyoxin B MIC incubated for 24 hrs by checkerboard broth microdilution method; format: functional
Aspergillus flavus [32] = test: Synergistic antifungal activity against Aspergillus flavus ATCC 16870 assessed as polyoxin B MIC incubated for 24 hrs by checkerboard broth microdilution method; format: functional
Aspergillus flavus [33] = test: Synergistic antifungal activity against Aspergillus flavus ATCC 16870 assessed as fractional inhibitory concentration index incubated for 24 hrs in presence of fluconazole by checkerboard broth microdilution method; format: functional
Cryptococcus neoformans [34] = test: Synergistic antifungal activity against Cryptococcus neoformans ATCC 32719 assessed as fluconazole MIC incubated for 24 hrs in by checkerboard broth microdilution method; format: functional
Aspergillus flavus [35] = test: Antifungal activity against Aspergillus flavus ATCC 16870 assessed as inhibition of cell wall synthesis incubated for 24 hrs in absence of sorbitol; format: functional
Candida albicans [36] = test: Antifungal activity against Candida albicans ATCC 76615 assessed as inhibition of cell wall synthesis incubated for 24 hrs in absence of sorbitol; format: functional
[37] = Cytotoxicity against human A549 cells assessed as cell viability at 4 ug/ml incubated for 24 hrs by CCK-8 assay relative to control; format: toxicity, cell-based; conditions: at 4 µg/mL, read-out: Activity
Aspergillus fumigatus [38] = test: Antifungal activity against Aspergillus fumigatus GIMCC 3.19 assessed as inhibition of cell wall synthesis incubated for 24 hrs in absence of sorbitol; format: functional
Aspergillus fumigatus [39] = test: Synergistic antifungal activity against Aspergillus fumigatus GIMCC 3.19 assessed as fractional inhibitory concentration index incubated for 24 hrs in presence of polyoxin B by checkerboard broth microdilution method; format: functional
Aspergillus flavus [40] = test: Antifungal activity against Aspergillus flavus ATCC 16870 assessed as inhibition of cell wall synthesis incubated for 24 hrs in presence of sorbitol; format: functional
[41] = Cytotoxicity against human A549 cells assessed as cell viability at 16 ug/ml incubated for 24 hrs by CCK-8 assay relative to control; format: toxicity, cell-based; conditions: at 16 µg/mL, read-out: Activity
Candida albicans [42] = test: Antifungal activity against Candida albicans ATCC 76615 assessed as inhibition of cell wall synthesis incubated for 24 hrs in presence of sorbitol; format: functional
[43] = Inhibition of Candida tropicalis ATCC 750 chitin synthase using UDP-GlcNAc as substrate incubated for 1 hr by absorbance based assay
Aspergillus fumigatus [44] = test: Synergistic antifungal activity against Aspergillus fumigatus GIMCC 3.19 assessed as polyoxin B MIC incubated for 24 hrs by checkerboard broth microdilution method; format: functional
Candida tropicalis [45] = test: Non competitive inhibition of Candida tropicalis ATCC 750 chitin synthase using UDP-GlcNAc as substrate assessed as Vmax at 0.05 to 0.15 mM incubated for 1 hr by Michaelis-Menten analysis; conditions: dose 0.05-0.15 mM

IC50 [1]: 100 µM
SMILES: O=C(Nc1cccc(C(F)(F)F)c1)C1CCN(CC(=O)N2CCC3(CCNC3=O)CC2)CC1

SMILES: O=C(/C=C/C(=O)Nc1ccc2c(c1)C(=O)NC1(CCSC1)N2)Nc1ccc([N+](=O)[O-])cc1 (stereo unspecified)
MIC (Aspergillus fumigatus [2]): 2 µg/mL (≈ 4.41 µM)
MIC (Aspergillus flavus [3]): 1 µg/mL
fractional inhibitory concentration index (FICI) (Candida albicans [4]): 0.75
MIC (Candida albicans [5]): 1 µg/mL (≈ 2.21 µM)
inhibition (Candida tropicalis [6]): Active
fractional inhibitory concentration index (FICI) (Aspergillus flavus [7]): 0.375
MIC (Aspergillus fumigatus [8]): 128 µg/mL
fractional inhibitory concentration index (FICI) (Cryptococcus neoformans [9]): 0.75
MIC (Aspergillus flavus [10]): 8 µg/mL (≈ 17.6 µM)
MIC (Cryptococcus neoformans [11]): 4 µg/mL (≈ 8.82 µM)
MIC (Cryptococcus neoformans [12]): 4 µg/mL
MIC (Aspergillus fumigatus [13]): 4 µg/mL
fractional inhibitory concentration index (FICI) (Aspergillus fumigatus [14]): 0.75
MIC (Candida albicans [15]): 0.5 µg/mL
MIC (Candida albicans [16]): 8 µg/mL (≈ 17.6 µM)
MIC (Aspergillus fumigatus [17]): 8 µg/mL (≈ 17.6 µM)
viability at 24 h, 8 ug/ml [18]: 94.3%
MIC (Cryptococcus neoformans [19]): 4 µg/mL (≈ 8.82 µM)
MIC (Aspergillus flavus [20]): 1 µg/mL (≈ 2.21 µM)
inhibition (Candida tropicalis [21]): 82.3%
Km (Candida tropicalis [22]): 5.18 mM
Ki [23]: 160 µM
viability at 24 h, 64 ug/ml [24]: 67.1%
fractional inhibitory concentration index (FICI) (Cryptococcus neoformans [25]): 1
fractional inhibitory concentration index (FICI) (Candida albicans [26]): 0.5
MIC (Candida albicans [27]): 8 µg/mL (≈ 17.6 µM)
MIC (Cryptococcus neoformans [28]): 32 µg/mL
viability at 24 h, 32 ug/ml [29]: 87.8%
viability (A549): 62.2%
MIC (Cryptococcus neoformans [30]): 2 µg/mL (≈ 4.41 µM)
MIC (Candida albicans [31]): 2 µg/mL
MIC (Aspergillus flavus [32]): 2 µg/mL
fractional inhibitory concentration index (FICI) (Aspergillus flavus [33]): 0.5
MIC (Cryptococcus neoformans [34]): 2 µg/mL
MIC (Aspergillus flavus [35]): 4 µg/mL (≈ 8.82 µM)
MIC (Candida albicans [36]): 4 µg/mL (≈ 8.82 µM)
viability at 24 h, 4 ug/ml [37]: 95.1%
MIC (Aspergillus fumigatus [38]): 8 µg/mL (≈ 17.6 µM)
fractional inhibitory concentration index (FICI) (Aspergillus fumigatus [39]): 1
MIC (Aspergillus flavus [40]): 64 µg/mL
viability at 24 h, 16 ug/ml [41]: 94%
MIC (Candida albicans [42]): 64 µg/mL
IC50 [43]: 107 µM
MIC (Aspergillus fumigatus [44]): 8 µg/mL
Vmax (Candida tropicalis [45]): 1.21 deltaOD/hr
